According to patent US7037919B1, “Tetrahydroquinoline derivatives” (Kaken Pharmaceutical Co. Ltd., priority 1999, dated 2006):

Assays:
[1] = tested on: orchiectomized (ORX) rats; test: Action of increasing prostate weight and bone mineral density in orchiectomized (ORX) rats (Test Example 4); format: in vivo, rat; settings: 10 mg/kg s.c. once daily, 5 days weekly, 4 weeks, ORX SD rats, Mean ± SD
Experimental: Action of Increasing Prostate Weight and Bone Mineral Density in Orchiectomized (ORX) Rats
Orchiectomy was performed in 12-week-old male SD rats. From the next day postoperation, the positive control compound dihydrotestosterone (DHT, 10 mg/kg) and the compound of the present invention (Example 60, 60 mg/kg), each dissolved in a 5% dimethyl sulfoxide-containing olive oil solution, were subcutaneously injected once daily, 5 days weekly, for 4 weeks. On the next day after final administration, the wet weight of the ventral prostate was measured to evaluate the AR agonistic effect of the compound of the present invention. On the next day following final administration, moreover, the right femur was removed, and fixed overnight in a 10% neutrally buffered formalin solution. Then, the bone mineral density at the site ranging from the diaphysis to the proximal end was measured by the method of double energy X-ray absorption using a bone mineral content-measuring machine (Aloka, DCS-600) to evaluate increasing action of bone mineral density of the compound of the present invention.

[2] = biological target: T1, Rat androgen receptors (rat AR) (Rattus norvegicus, UniProt P15207); test: Test for competitive binding to rat androgen receptors; settings: 3H-testosterone, rat prostate AR fraction; hydroxyflutamide taken as 100
T1 construct: from tissue; host or cells: prostate of orchiectomized male SD rats (100,000 x g supernatant)
T1 sequence (P15207 1-902): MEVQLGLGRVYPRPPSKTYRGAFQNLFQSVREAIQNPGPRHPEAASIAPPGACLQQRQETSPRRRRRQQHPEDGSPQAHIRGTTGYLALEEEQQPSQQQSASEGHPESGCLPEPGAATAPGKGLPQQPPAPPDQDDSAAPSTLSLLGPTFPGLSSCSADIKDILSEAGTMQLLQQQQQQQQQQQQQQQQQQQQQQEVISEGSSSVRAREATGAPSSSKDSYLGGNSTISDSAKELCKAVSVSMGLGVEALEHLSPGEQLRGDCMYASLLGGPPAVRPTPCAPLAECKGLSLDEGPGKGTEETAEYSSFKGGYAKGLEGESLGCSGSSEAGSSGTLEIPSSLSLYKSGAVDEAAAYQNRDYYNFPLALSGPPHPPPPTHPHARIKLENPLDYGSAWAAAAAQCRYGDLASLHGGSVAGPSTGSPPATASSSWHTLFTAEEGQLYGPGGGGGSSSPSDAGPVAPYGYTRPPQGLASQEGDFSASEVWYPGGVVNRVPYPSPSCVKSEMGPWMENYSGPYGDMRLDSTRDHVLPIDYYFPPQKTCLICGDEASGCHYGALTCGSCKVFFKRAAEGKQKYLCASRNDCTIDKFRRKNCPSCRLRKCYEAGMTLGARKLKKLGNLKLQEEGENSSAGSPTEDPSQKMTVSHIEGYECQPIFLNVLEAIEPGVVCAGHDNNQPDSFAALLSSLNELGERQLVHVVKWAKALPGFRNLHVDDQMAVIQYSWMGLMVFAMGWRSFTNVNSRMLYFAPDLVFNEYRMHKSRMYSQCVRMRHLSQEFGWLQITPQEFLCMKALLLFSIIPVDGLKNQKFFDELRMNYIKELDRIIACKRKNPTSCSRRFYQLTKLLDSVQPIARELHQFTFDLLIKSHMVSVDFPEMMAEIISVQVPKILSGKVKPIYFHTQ
Experimental: Test for Competitive Binding to Rat Androgen Receptors (Rat AR)
Preparation of rat AR fraction: Prostates were harvested into ice-cooled ET buffer (10 mM Tris, 1 mM EDTA, 5 mM DTT, 10 mM sodium molybdate, pH 7.4) 3 days after orchiectomy in 11-week-old male SD rats. The prostate was finely cut, and ET buffer was added, whereafter the mixture was homogenized using a homogenizer. The homogenate was ultracentrifuged (100,000×g, 60 min, 4° C.), and the supernatant was used as a rat AR fraction (hereinafter referred to as ARF).
Binding test: ^3H-testosterone (hereinafter referred to as ^3H-T) was diluted with ET buffer. Dihydrotestosterone (DHT) was prepared so as to have a concentration (final concentration 1 μM) 400 times the maximum concentration of ^3H-T (2.5 nM). The ^3H-T solution was added to a 1.5 ml tube containing DHT, no DHT, or the test compound with a varying concentration. Further, 200 μg ARF was added to adjust the final volume to 100 μl. The mixture was incubated for 2 hours at 4° C., and then 300 μl of a 0.05% dextran T70-1.0% activated carbon solution was added. The mixture was further incubated for 15 minutes in ice to remove the free ^3H-T. After centrifugation (4° C., 2,500 rpm, 5 min), 275 μl of the supernatant was harvested into a liquid scintillation vial, and 2 ml of clear-sol was added. The mixture was stirred, allowed to stand, and measured for ^3H radioactivity with a liquid scintillation counter.
Calculation of the relative binding inhibition rate: The binding inhibition rate (%) of the compound according to the present invention was calculated from the following equation, and the 50% inhibition concentration (IC50) was calculated by the probit analysis of the concentration-binding inhibition curve.
The relative binding inhibition rate (RBA: Relative Binding Affinity) was obtained from the following equation (Endocrinology 138, 863-870, 1997): RBA=100×(IC50 of hydroxyflutamide)/(IC50 of the compound of the present invention) • RBA's of the compounds of the present invention, calculated as above, are shown in Table 10.

[3] = tested on: orchiectomized (ORX) rats; test: Action of increasing prostate weight in orchiectomized (ORX) rats (Test Example 3); format: in vivo, rat; settings: 30 mg/kg s.c. once daily for 8 days, ORX SD rats, Mean ± SD
Experimental: Action of Increasing Prostate Weight in Rats After Orchiectomized (ORX) Rats
Orchiectomy was performed in 8-week-old male SD rats. From 5 days postoperation, the compound of the present invention (Example 60, 30 mg/kg), dissolved in a 5% dimethyl sulfoxide-containing olive oil solution, was subcutaneously injected once daily for 8 days. On the next day after final administration, the wet weight of the ventral prostate was measured to evaluate the AR agonistic effect of the compound of the present invention.

[4] = tested on: AR; test: Assignment of compounds as having AR agonistic or AR antagonistic action (description, no method given); settings: compounds named as usable for category A diseases
[5] = tested on: orchiectomized rats; test: Action of increasing prostate weight in orchiectomized rats (Test Example 2, printed 21); format: in vivo, rat; settings: for Weight of prostate: orchiectomized SD rats, Mean ± SD
Experimental: Action of Increasing Prostate Weight in Orchiectomized Rats
Testes were removed from 8- to 12-week-old male SD rats. From 5 days postoperation, the compound of the present invention (3, 30 mg/kg), suspended in a 0.5% methyl cellulose solution, was subcutaneously injected once daily for a consecutive week, and 6 days weekly for 8 consecutive weeks. On the next day after final administration, the wet weight of the ventral prostate was measured to evaluate the in vivo AR agonistic effect of the compound of the present invention.

SMILES | RBA (Relative Binding Affinity = 100 x IC50 of hydroxyflutamide / IC50 of the compound) [2] | also measured
C[C@]12CCC(=O)C[C@@H]1CC[C@@H]1[C@@H]2CC[C@]2(C)[C@@H](O)CC[C@@H]12 [DHT, dihydrotestosterone, reference compound] | – | Prostate weight [1]: 150 ± 14 mg/body weight 100 g; Bone mineral density ([1]; right femur): 131 ± 7 mg/cm^2
CC(C)NC(=S)NCC(C)(C)C1Nc2ccc([N+](=O)[O-])cc2C2C=CCC21 (stereo not drawn) [Example 69] | 244 | Weight of prostate [3]: 21 ± 2 mg/body weight 100 g
CC(=O)SCC(C)(C)C1Nc2ccc([N+](=O)[O-])cc2C2C=CCC21 (stereo not drawn) [Example 76, thioacetic acid S-[2-methyl-2-(8-nitro-3a,4,5,9b-tetrahydro-3H-cyclopenta[c]quinolin-4-yl)propyl]ester] | 131 | –
CC(=O)NCC(C)(C)C1Nc2ccc([N+](=O)[O-])cc2C2C=CCC21 (stereo not drawn) [Example 52] | 478 | –
CC(C)(CO)C1Nc2ccc(C#N)cc2C2C=CCC21 (stereo not drawn) [Example 35, 4-(2-Hydroxy-1,1′-dimethyl-ethyl)-3a,4,5,9b-tetrahydro-3H-cyclopenta[c]quinoline-8-carbonitrile] | 236 | –
CC(C)(O)C(=O)Nc1ccc([N+](=O)[O-])c(C(F)(F)F)c1 [Hydroxyflutamide, hydroxyflutamide, reference compound] | 100 | –
CC(=O)Nc1ccc(S(=O)(=O)NCC(C)(C)C2Nc3ccc([N+](=O)[O-])cc3C3C=CCC32)cc1 (stereo not drawn) [Example 63] | 580 | –
CC(C)(CO)C1Nc2cccc([N+](=O)[O-])c2C2C=CCC21 (stereo not drawn) [Example 7] | 65 | –
CC(C)C(=O)NCC(C)(C)C1Nc2ccc([N+](=O)[O-])cc2C2C=CCC21 (stereo not drawn) [Example 53] | 55 | –
CC(=O)OCC(C)(C)C1Nc2ccc([N+](=O)[O-])cc2C2C=CCC21 (stereo not drawn) [Example 23] | – | AR agonistic action [4]: AR agonistic action
CC(=O)OCC(C)(C)C1Nc2ccc(C#N)cc2C2C=CCC21 (stereo not drawn) [Example 40, acetic acid 2-(8-cyano-3a,4,5,9b-tetrahydro-3H-cyclopentatc[c]quinolin-4-yl)-2-methylpropyl ester] | 96 | –
CC(C)NC(=O)NCC(C)(C)C1Nc2ccc([N+](=O)[O-])cc2C2C=CCC21 (stereo not drawn) [Example 64, 1-isopropyl-3-[2-methyl-2-(8-nitro-3a,4,5,9b-tetrahydro-3H-cyclopenta[c]quinolin-4-yl)-propyl]urea] | 298 | –
COC(C)(C)C1Nc2ccc([N+](=O)[O-])cc2C2C=CCC21 (stereo not drawn) [Example 19] | 57 | –
CCNC(=S)NCC(C)(C)C1Nc2ccc([N+](=O)[O-])cc2C2C=CCC21 (stereo not drawn) [Example 68] | 491 | –
CC(C)(CNS(=O)(=O)c1ccc(F)cc1)C1Nc2ccc([N+](=O)[O-])cc2C2C=CCC21 (stereo not drawn) [Example 61] | 169 | –
CC(C)(CNC(=O)c1ccccc1)C1Nc2ccc([N+](=O)[O-])cc2C2C=CCC21 (stereo not drawn) [Example 56] | – | AR agonistic action [4]: AR agonistic action
CNC(=S)NCC(C)(C)C1Nc2ccc([N+](=O)[O-])cc2C2C=CCC21 (stereo not drawn) [Example 67] | – | AR agonistic action [4]: AR agonistic action
CC(C)(C)OC(=O)NCC(C)(C)C1Nc2ccc([N+](=O)[O-])cc2C2C=CCC21 (stereo not drawn) [Example 25] | – | AR agonistic action [4]: AR agonistic action
CC(C)(CNS(C)(=O)=O)C1Nc2ccc([N+](=O)[O-])cc2C2C=CCC21 (stereo not drawn) [Example 59] | 2288 | –
CC(C)(CO)C1Nc2ccc([N+](=O)[O-])cc2C2C=CCC21 (stereo not drawn) [Example 1, 2-methyl-2-(8-nitro-3a,4,5,9b-tetrahydro-3H-cyclopenta[c]quinolin-4-yl)-propan-1-ol] | 4751 | AR agonistic action [4]: AR agonistic action; Weight of prostate ([5]; 1-week treatment, 3 mg/kg s.c. once daily): 18 ± 4 mg/body weight (100 g); Weight of prostate ([5]; 1-week treatment, 30 mg/kg s.c. once daily): 26 ± 3 mg/body weight (100 g); Weight of prostate ([5]; 8-week treatment, 3 mg/kg s.c. 6 days weekly): 52 ± 8 mg/body weight (100 g); Weight of prostate ([5]; 8-week treatment, 30 mg/kg s.c. 6 days weekly): 97 ± 14 mg/body weight (100 g); Prostate weights in comparison with the comparative example ([5]; consecutively administered for 1 week (3, 30 mg/kg s.c.)): significantly increased prostate weights; Prostate weight relative to normal control ([5]; duration of treatment extended to 8 weeks (3, 30 mg/kg s.c.)): restored the atrophied prostate up to the level of the normal control
CC(C)(OCc1ccccc1)C1Nc2ccc([N+](=O)[O-])cc2C2C=CCC21 (stereo not drawn) [Example 21] | 74 | –
CC(C)(CNC(=O)Nc1ccc([N+](=O)[O-])cc1)C1Nc2ccc([N+](=O)[O-])cc2C2C=CCC21 (stereo not drawn) [Example 66] | – | AR agonistic action [4]: AR agonistic action
CC(C)(CCl)C1Nc2ccc([N+](=O)[O-])cc2C2C=CCC21 (stereo not drawn) [Example 29] | 75 | –
Cc1cccc(NC(=O)NCC(C)(C)C2Nc3ccc([N+](=O)[O-])cc3C3C=CCC32)c1 (stereo not drawn) [Example 65] | – | AR agonistic action [4]: AR agonistic action
